From ChEMBL document CHEMBL1201862, “PubChem BioAssay data set” (2004)
Calls of active or inactive are those of the source.

Assays:
[1] = target: Mitogen-activated protein kinase 10 (Homo sapiens, UniProt P53779); test: Dose response biochemical screening assay for inhibitors of c-Jun N-Terminal Kinase 3 (JNK3). [Related pubchem assays: 746 ]
Estrogen receptor = target: T1, Estrogen receptor (Homo sapiens, UniProt P03372);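 further: potency for inhibiting coactivator peptide recruitment to the receptor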
T1 sequence (P03372 whole entry): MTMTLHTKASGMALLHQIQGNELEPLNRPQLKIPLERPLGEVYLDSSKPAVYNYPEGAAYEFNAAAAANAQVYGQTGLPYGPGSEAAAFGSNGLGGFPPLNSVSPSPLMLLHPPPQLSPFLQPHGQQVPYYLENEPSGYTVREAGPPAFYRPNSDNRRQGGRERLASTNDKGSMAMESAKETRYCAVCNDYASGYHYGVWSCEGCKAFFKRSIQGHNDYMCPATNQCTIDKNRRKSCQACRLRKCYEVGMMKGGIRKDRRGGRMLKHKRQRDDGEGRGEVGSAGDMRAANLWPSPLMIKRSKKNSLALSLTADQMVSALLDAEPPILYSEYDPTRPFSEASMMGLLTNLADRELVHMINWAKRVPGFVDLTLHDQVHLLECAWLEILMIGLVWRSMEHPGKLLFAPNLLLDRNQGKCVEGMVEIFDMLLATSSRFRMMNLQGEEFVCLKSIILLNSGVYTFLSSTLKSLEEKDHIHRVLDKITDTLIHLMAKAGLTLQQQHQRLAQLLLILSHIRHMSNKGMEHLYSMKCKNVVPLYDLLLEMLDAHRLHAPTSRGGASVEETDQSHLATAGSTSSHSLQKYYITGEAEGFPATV

Estrogen receptor beta [2] = target: T2, Estrogen receptor beta (Homo sapiens, UniProt Q92731); test: blockers of SRC-3 recruitment to ERβ – biochemical, ELISA, streptavidin-HRP readout, orthogonal assay, confirmation (AID 1060)
T2 sequence (Q92731 whole entry): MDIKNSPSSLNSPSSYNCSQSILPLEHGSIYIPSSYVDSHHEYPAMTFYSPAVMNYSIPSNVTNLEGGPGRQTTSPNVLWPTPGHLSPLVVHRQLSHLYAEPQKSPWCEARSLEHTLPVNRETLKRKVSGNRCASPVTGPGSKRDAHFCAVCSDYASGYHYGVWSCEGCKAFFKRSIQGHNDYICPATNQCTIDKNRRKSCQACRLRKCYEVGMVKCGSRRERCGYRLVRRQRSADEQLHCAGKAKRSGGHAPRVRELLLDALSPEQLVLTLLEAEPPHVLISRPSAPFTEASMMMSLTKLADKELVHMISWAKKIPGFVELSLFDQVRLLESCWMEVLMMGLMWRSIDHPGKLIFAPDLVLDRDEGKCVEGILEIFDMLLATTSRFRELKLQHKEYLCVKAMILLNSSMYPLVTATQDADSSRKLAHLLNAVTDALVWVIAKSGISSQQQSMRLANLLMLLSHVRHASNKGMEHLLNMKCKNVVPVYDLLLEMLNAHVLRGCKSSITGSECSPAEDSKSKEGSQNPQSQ

Estrogen receptor beta [3] = target: T2, Estrogen receptor beta
Protein Tat = target: T3, Protein Tat (Human immunodeficiency virus type 1 group M subtype B (isolate HXB2)(HIV-1), UniProt P04608); type: functional;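 further: tat binding to TAR RNA read out by fluorescence polarization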
T3 sequence (P04608 whole entry): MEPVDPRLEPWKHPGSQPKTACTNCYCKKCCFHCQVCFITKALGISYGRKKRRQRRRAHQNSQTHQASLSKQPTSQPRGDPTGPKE

[4] = Reduced DLD-1 viability, concentration-response, CellTiter-Glo luminescence (AID 1117352); type: functional
[5] = cytotoxicity toward Colo320 cells – cell-based, CellTiter-Glo luminescence, IC50, dose response (AID 1117334); type: functional; details: COLO 320
[6] = CellTiter-Glo luminescence survival assay, SW480 colon tumor line, concentration-response curve, half-maximal inhibitory concentration (AID 1117338); type: functional
[7] = RKO cell viability reduction, dose response, CellTiter-Glo luminescence (AID 1117322); type: functional
[8] = SNU-C1 cell viability reduction, dose response, CellTiter-Glo luminescence (AID 1117323); type: functional, cell-based
[9] = cytotoxicity toward HCT116 cells – cell-based, CellTiter-Glo luminescence, IC50, dose response (AID 1117332); type: functional; details: HCT-116
[10] = HCT116 cell viability decrease, GSK3B pretreatment – CellTiter-Glo, IC50, dose response (AID 1117339); type: functional; details: HCT-116
[11] = cytotoxicity toward HT-29 cells – cell-based, CellTiter-Glo luminescence, IC50, dose response (AID 1117330); type: functional
[12] = M. tuberculosis growth inhibition, HTS (AID 449762); type: functional
[13] = Luminescence Cell-Based Dose Retest to Confirm Inhibitors of Cancer Stem Cells. [Related pubchem assays (depositor defined):AID2717, AID2721]; type: functional; details: Homo sapiens
[14] = Dd2 malaria parasite growth inhibition potency – SYBR Green, dry powder samples, dose response (AID 1159566); type: functional, cell-based;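 further: potency for growth inhibition with lower SYBR green DNA signal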
[15] = growth inhibition of PfATP4-mutant resistant parasites – NITD609-resistant line, SYBR Green, dry powder, dose response (AID 1159571); type: functional, cell-based;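 further: parasites synchronized at ring stage by sorbitol before testing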
[16] = P. falciparum Dd2 growth inhibitors, dose response, SYBR Green, cherry-picked samples (AID 1159567); type: functional, cell-based
[17] = growth inhibition of yeast DHODH-expressing 3D7 parasites – SYBR Green, dry powder samples, dose response (AID 1159570); type: functional, cell-based;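 further: parasite growth measured after 72 hours of compound exposure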
[18] = toxicity to human hepatoma HepG2 cells – cell-based, cherry-picked samples, cytotoxicity control, dose response (AID 1159577); type: functional
[19] = toxicity to human HepG2 hepatoma cells – cell-based, plate reader, dry powder samples, cytotoxicity control, dose response (AID 1159569); type: functional;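 further: inhibitor potency with signal falling toward the positive control level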
[20] = anti-trypanosomal activity in BESM host cells – imaging, CA-I/72 strain, bovine embryo skeletal muscle, dry powder, dose response (AID 651885); type: functional, cell-based
[21] = antimalarial activity against erythrocytic parasites – NF54 strain, plate reader, dry powder, dose response (AID 651889); type: functional, cell-based
[22] = antileishmanial activity on axenic amastigotes – plate reader, dry powder, dose response (AID 651892); type: functional, cell-based
[23] = T. cruzi growth inhibition in host cells, dose response, cell-based, plate reader, dry powder, set 2 (AID 652275); type: functional
[24] = host muscle cell viability loss – plate reader, dry powder, counter-screen for T. cruzi inhibitor project, dose response (AID 651895); type: functional, cell-based
[25] = intracellular Chagas parasite inhibition in myoblasts – Tulahuen strain, L-6 host cells, dry powder, dose response (AID 651890); type: functional, cell-based
[26] = African trypanosome bloodstream form growth inhibition – STIB900 strain, plate reader, dry powder, dose response (AID 651894); type: functional, cell-based
[27] = Trypanosoma cruzi replication inhibitors in host cells – cell-based, plate reader, dry powder samples, dose response (AID 651845); type: functional
Ephrin type-A receptor 4 = Ephrin type-A receptor 4 (Mus musculus, UniProt Q03137); test: EphA4 ligand-binding antagonists – biochemical, colorimetric, mouse EphA4, primary screen (AID 689); type: functional
Chain of Ephrin type-A receptor 4 (Q03137 whole entry): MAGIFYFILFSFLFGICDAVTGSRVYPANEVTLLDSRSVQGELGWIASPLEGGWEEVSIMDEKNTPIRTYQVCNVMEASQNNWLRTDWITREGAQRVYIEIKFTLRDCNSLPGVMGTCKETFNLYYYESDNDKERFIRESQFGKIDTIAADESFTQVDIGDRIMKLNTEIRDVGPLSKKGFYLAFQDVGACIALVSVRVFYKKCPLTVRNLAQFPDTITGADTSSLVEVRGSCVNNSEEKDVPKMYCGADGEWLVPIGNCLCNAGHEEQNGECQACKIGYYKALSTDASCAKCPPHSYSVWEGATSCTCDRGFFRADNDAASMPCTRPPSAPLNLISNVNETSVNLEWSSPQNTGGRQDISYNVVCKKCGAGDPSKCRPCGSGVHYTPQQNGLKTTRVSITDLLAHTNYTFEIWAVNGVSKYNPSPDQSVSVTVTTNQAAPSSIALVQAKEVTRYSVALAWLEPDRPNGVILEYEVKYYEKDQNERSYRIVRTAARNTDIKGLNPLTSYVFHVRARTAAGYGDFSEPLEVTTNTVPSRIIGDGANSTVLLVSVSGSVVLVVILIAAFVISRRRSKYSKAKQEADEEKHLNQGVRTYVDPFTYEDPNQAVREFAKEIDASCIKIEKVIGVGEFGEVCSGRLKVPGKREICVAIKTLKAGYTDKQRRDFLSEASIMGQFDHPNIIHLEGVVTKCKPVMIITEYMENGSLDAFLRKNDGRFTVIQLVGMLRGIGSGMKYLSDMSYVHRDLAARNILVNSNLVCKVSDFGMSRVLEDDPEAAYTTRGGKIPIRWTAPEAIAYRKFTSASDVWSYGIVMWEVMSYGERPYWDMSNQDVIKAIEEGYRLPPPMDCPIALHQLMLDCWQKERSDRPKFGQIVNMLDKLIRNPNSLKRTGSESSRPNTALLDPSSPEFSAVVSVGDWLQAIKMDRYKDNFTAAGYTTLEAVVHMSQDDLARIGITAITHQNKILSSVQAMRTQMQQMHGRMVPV

[28] = target: Induced myeloid leukemia cell differentiation protein Mcl-1 (Homo sapiens, UniProt Q07820); type: functional
Chain of Induced myeloid leukemia cell differentiation protein Mcl-1 (Q07820 whole entry): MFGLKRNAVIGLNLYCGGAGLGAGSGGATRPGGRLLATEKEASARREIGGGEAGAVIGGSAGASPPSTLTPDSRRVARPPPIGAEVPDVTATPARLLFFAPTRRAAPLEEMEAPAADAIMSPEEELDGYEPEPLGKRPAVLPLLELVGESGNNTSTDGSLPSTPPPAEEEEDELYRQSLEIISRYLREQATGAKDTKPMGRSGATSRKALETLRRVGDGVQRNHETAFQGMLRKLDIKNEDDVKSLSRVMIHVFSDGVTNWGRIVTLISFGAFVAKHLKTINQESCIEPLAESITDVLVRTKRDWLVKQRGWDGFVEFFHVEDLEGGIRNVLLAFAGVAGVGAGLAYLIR

[29] = target: Heat shock protein HSP 90-alpha (Homo sapiens, UniProt P07900); type: functional, organism-based
[30] = Luminescence Cell-Based Dose Confirmation HTS to Identify Activators of 5'UTR Stem-Loop Driven Alpha-Synuclein mRNA Translation in H4 Neuroglioblastoma Cells. [Related pubchem assays: 1829 (Project Summary), 1814 (Primary HTS)]; type: functional
H4 = test: Luminescence Cell-Based Dose Response HTS to Identify Activators of 5'UTR Stem-Loop Driven Prion Protein mRNA Translation in H4 Neuroglioblastoma Cells. [Related pubchem assays: 1829 (Project Summary), 1814 (Primary HTS)]; type: functional; details: Homo sapiens
[31] = Luminescence Cell-Based Dose Response HTS to Identify Activators of Luciferase Translation or Activity in H4 […] Cells. [Related pubchem assays: 1829 (Project Summary), 1814 (Primary HTS)]; type: functional
[32] = target: 5-hydroxytryptamine receptor 1A (Homo sapiens, UniProt P08908); type: functional
Chain of 5-hydroxytryptamine receptor 1A (P08908 whole entry): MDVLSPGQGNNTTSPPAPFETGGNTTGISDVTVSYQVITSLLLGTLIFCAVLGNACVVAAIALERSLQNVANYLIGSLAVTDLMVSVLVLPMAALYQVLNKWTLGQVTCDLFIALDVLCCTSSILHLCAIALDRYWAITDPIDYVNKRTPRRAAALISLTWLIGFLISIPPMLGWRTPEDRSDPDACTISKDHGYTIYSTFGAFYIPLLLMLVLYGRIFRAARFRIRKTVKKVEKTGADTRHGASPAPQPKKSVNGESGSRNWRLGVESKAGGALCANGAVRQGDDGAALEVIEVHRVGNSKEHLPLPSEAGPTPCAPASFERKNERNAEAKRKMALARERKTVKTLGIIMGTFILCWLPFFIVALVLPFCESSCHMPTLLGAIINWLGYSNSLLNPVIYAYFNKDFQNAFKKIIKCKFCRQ

Chain of Mitogen-activated protein kinase 10 (P53779 whole entry): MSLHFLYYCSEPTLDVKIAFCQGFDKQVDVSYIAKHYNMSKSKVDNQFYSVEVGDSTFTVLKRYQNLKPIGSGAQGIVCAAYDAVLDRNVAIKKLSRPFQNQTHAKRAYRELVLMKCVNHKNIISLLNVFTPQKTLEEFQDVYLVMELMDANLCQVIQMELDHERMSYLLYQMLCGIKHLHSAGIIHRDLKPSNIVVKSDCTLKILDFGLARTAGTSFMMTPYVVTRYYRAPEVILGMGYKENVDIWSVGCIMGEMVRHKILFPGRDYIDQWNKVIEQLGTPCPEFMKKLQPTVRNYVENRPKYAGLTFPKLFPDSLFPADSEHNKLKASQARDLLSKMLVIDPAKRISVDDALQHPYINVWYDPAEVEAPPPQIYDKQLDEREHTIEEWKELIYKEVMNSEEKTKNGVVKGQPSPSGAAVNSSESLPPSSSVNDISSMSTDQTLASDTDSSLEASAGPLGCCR

SMILES: COc1ccc2c(c1)c1ncn(Cc3ccco3)c(=O)c1n2C
- IC50 [1]: 90 µM (not active)

SMILES: Cc1noc(C)c1COc1ccc(C(=O)OCC(=O)N2c3ccccc3NC(=O)C2(C)C)cc1
- IC50 (Estrogen receptor): 8.74 µM (active)
- IC50 (Estrogen receptor beta [2]): 3.98 µM (not active)
- IC50 (Estrogen receptor beta [3]): 2.72 µM (active)
- IC50 (Protein Tat): > 100 µM (inconclusive)

SMILES: Cc1cc2nc3c(=O)[nH]c(=O)nc-3n(C[C@H](O)[C@H](O)[C@H](O)COP(=O)(O)OP(=O)(O)OC[C@H]3O[C@@H](n4cnc5c(N)ncnc54)[C@H](O)[C@H]3O)c2cc1C
- IC50 [4]: > 20 µM (inactive)
- IC50 [5]: > 20 µM (inactive)
- IC50 [6]: > 20 µM (inactive)
- IC50 [7]: > 20 µM (inactive)
- IC50 [8]: > 20 µM (inactive)
- IC50 [9]: > 20 µM (inactive)
- IC50 [10]: > 20 µM (inactive)
- IC50 [11]: > 20 µM (inactive)

SMILES: COc1ccc(N/N=C(\C=O)C(=O)c2cccs2)cc1
- IC50 [12]: > 100 µM (active)
- AC50 [13]: 3.43 µM (active)

SMILES: COc1ccc(NC(=O)Nc2ccc3c(c2)CC(=O)N([C@H](C)CO)C[C@H](C)[C@@H](CN(C)Cc2ccc(C(=O)Nc4ccccc4N)cc2)O3)cc1
- AC50 [14]: 1.5 µM (active)
- AC50 [15]: 2.04 µM (active)
- AC50 [16]: 2.22 µM (active)
- AC50 [17]: 2.3 µM (active)
- AC50 [18]: > 39 µM (inactive)
- AC50 [19]: > 100 µM (inactive)

SMILES: C[C@H](CO)N1C[C@H](C)[C@@H](CN(C)Cc2ccc(Oc3ccccc3)cc2)Oc2c(NC(=O)c3ccncc3)cccc2C1=O
- IC50 [20]: > 20 µM (inactive)
- IC50 [21]: 0.872 µM (inactive)
- IC50 [22]: 26.3 µM (inactive)
- AC50 [23]: 0.000469 µM (active)
- IC50 [24]: 17.9 µM (inactive)
- IC50 [25]: 0.0215 µM (active)
- IC50 [26]: 3.73 µM (inactive)
- AC50 [27]: 0.00152 µM (active)

SMILES: CCOC(=O)c1c(C)oc2c1c(C(c1cccnc1)N1CCOCC1)c(O)c1ccccc12 (stereo unspecified)
- IC50 (Ephrin type-A receptor 4): 3.58 µM (active)
- IC50 [28]: 1.17 µM (active)
- AC50 [29]: 8.43 µM (active)
- EC50 [30]: 12.5 µM (active)
- EC50 (H4): > 120 µM (not active)
- EC50 [31]: 106 µM (active)

SMILES: Cc1[nH]c2c(C(F)(F)F)cccc2c1CCN
- EC50 [32]: > 50 µM (not active)
